Test results as given in BindingDB's records for doi:10.1021/acschembio.6b00720 (University of Michigan, 2016).

Tests used:
[1] = biological target: T1, Acyl-protein thioesterase 2 (Homo sapiens, UniProt O95372); assay: Fluorescence Binding Assays; conditions: 25 °C
[2] = biological target: Acyl-protein thioesterase 2 [S122A] (Homo sapiens, UniProt O95372, S122A); assay: Fluorescence Binding Assays; conditions: 25 °C
[3] = biological target: Acyl-protein thioesterase 2 [H152R] (Homo sapiens, UniProt O95372, H152R); assay: Steady-State Kinetic Assays; conditions: pH 6.5
Sequence of Acyl-protein thioesterase 2 [H152R] (O95372 whole entry H152R): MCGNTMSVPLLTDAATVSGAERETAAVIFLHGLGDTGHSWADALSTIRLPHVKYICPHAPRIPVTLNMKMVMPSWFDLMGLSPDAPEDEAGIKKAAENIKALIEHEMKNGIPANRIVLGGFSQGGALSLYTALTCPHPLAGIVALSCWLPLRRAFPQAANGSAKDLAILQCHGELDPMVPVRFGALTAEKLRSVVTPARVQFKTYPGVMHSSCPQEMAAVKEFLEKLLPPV
Method: (§1) Enzymes were diluted to 10 nM in PBS pH 6.5 (adjusted with sodium acetate) supplemented with 0.1 g/L pluronic F127 (Sigma). Varying concentrations of resorufin acetate (Sigma) in DMSO were added as 5 μL aliquots to clear-bottom 96-well plates (Greiner bio-one). Using a multi-channel pipette, 95 μL of enzyme was added to each well and quickly mixed by pipetting up and down several times. Each enzyme was assayed in 2 separate runs, each with 4 replicates per substrate concentration and 4 replicates of catalytic-dead enzyme.

[4] = biological target: Acyl-protein thioesterase 2 [L78I,A85S,P86Q] (Homo sapiens, UniProt O95372, A85S/L78I/P86Q); assay: Steady-State Kinetic Assays; conditions: pH 6.5
Sequence of Acyl-protein thioesterase 2 [L78I,A85S,P86Q] (O95372 whole entry L78I/A85S/P86Q): as the sequence (O95372 whole entry H152R) above, with L78I, A85S, P86Q, R152H counted along it
Method: as §1

[5] = biological target: Acyl-protein thioesterase 2 [L78I,A85S,P86Q,H152R,R153A,A154S] (Homo sapiens, UniProt O95372, A154S/A85S/H152R/L78I/P86Q/R153A); assay: Steady-State Kinetic Assays; conditions: pH 6.5
Sequence of Acyl-protein thioesterase 2 [L78I,A85S,P86Q,H152R,R153A,A154S] (O95372 whole entry L78I/A85S/P86Q/H152R/R153A/A154S): as the sequence (O95372 whole entry H152R) above, with L78I, A85S, P86Q, R153A, A154S counted along it
Method: as §1

[6] = biological target: Acyl-protein thioesterase 2 [L78I] (Homo sapiens, UniProt O95372, L78I); assay: Steady-State Kinetic Assays; conditions: pH 6.5
Sequence of Acyl-protein thioesterase 2 [L78I] (O95372 whole entry L78I): as the sequence (O95372 whole entry H152R) above, with L78I, R152H counted along it
Method: as §1

[7] = biological target: Acyl-protein thioesterase 2 [P86Q] (Homo sapiens, UniProt O95372, P86Q); assay: Steady-State Kinetic Assays; conditions: pH 6.5
Sequence of Acyl-protein thioesterase 2 [P86Q] (O95372 whole entry P86Q): as the sequence (O95372 whole entry H152R) above, with P86Q, R152H counted along it
Method: as §1

[8] = biological target: Acyl-protein thioesterase 2 [M178L] (Homo sapiens, UniProt O95372, M178L); assay: Steady-State Kinetic Assays; conditions: pH 6.5
Sequence of Acyl-protein thioesterase 2 [M178L] (O95372 whole entry M178L): as the sequence (O95372 whole entry H152R) above, with R152H, M178L counted along it
Method: as §1

[9] = biological target: T1, Acyl-protein thioesterase 2; assay: Steady-State Kinetic Assays; conditions: pH 6.5
Method: as §1

[10] = biological target: Acyl-protein thioesterase 2 [L78I,A85S] (Homo sapiens, UniProt O95372, A85S/L78I); assay: Steady-State Kinetic Assays; conditions: pH 6.5
Sequence of Acyl-protein thioesterase 2 [L78I,A85S] (O95372 whole entry L78I/A85S): as the sequence (O95372 whole entry H152R) above, with L78I, A85S, R152H counted along it
Method: as §1

[11] = biological target: Acyl-protein thioesterase 1 [L176M] (Homo sapiens, UniProt O75608, L176M); assay: Steady-State Kinetic Assays; conditions: pH 6.5
Sequence of Acyl-protein thioesterase 1 [L176M] (O75608 whole entry L176M): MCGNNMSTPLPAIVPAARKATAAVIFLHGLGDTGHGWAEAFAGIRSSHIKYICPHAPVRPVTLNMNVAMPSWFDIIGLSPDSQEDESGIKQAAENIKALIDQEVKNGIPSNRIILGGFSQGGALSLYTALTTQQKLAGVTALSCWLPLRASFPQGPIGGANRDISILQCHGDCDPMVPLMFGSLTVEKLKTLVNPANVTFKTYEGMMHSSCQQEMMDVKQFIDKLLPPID
Method: as §1

[12] = biological target: Acyl-protein thioesterase 1 (Homo sapiens, UniProt O75608); assay: Steady-State Kinetic Assays; conditions: pH 6.5
Sequence of Acyl-protein thioesterase 1 (O75608 whole entry): as the sequence (O75608 whole entry L176M) above, with M176L counted along it
Method: as §1

[13] = biological target: Acyl-protein thioesterase 1 [I75L] (Homo sapiens, UniProt O75608, I75L); assay: Steady-State Kinetic Assays; conditions: pH 6.5
Sequence of Acyl-protein thioesterase 1 [I75L] (O75608 whole entry I75L): as the sequence (O75608 whole entry L176M) above, with I75L, M176L counted along it
Method: as §1

[14] = biological target: Acyl-protein thioesterase 1 [Q83P] (Homo sapiens, UniProt O75608, Q83P); assay: Steady-State Kinetic Assays; conditions: pH 6.5
Sequence of Acyl-protein thioesterase 1 [Q83P] (O75608 whole entry Q83P): as the sequence (O75608 whole entry L176M) above, with Q83P, M176L counted along it
Method: as §1

[15] = biological target: Acyl-protein thioesterase 1 [I75L,S82A] (Homo sapiens, UniProt O75608, I75L/S82A); assay: Steady-State Kinetic Assays; conditions: pH 6.5
Sequence of Acyl-protein thioesterase 1 [I75L,S82A] (O75608 whole entry I75L/S82A): as the sequence (O75608 whole entry L176M) above, with I75L, S82A, M176L counted along it
Method: as §1

[16] = biological target: Acyl-protein thioesterase 1 [I75L,S82A,Q83P] (Homo sapiens, UniProt O75608, I75L/Q83P/S82A); assay: Steady-State Kinetic Assays; conditions: pH 6.5
Sequence of Acyl-protein thioesterase 1 [I75L,S82A,Q83P] (O75608 whole entry I75L/S82A/Q83P): as the sequence (O75608 whole entry L176M) above, with I75L, S82A, Q83P, M176L counted along it
Method: as §1

[17] = biological target: Acyl-protein thioesterase 1 [I75L,S82A,Q83P,R149H,A150R,S151A] (Homo sapiens, UniProt O75608, A150R/I75L/Q83P/R149H/S151A/S82A); assay: Steady-State Kinetic Assays; conditions: pH 6.5
Sequence of Acyl-protein thioesterase 1 [I75L,S82A,Q83P,R149H,A150R,S151A] (O75608 whole entry I75L/S82A/Q83P/R149H/A150R/S151A): as the sequence (O75608 whole entry L176M) above, with I75L, S82A, Q83P, R149H, A150R, S151A, M176L counted along it
Method: as §1

Sequence of Acyl-protein thioesterase 2 [S122A] (O95372 whole entry S122A): as the sequence (O95372 whole entry H152R) above, with S122A, R152H counted along it
T1 sequence (O95372 whole entry): as the sequence (O95372 whole entry H152R) above, with R152H counted along it

| Kd [1] | Kd [2] | Ki [3] | Ki [4] | Ki [5] | Ki [6] | Ki [7] | Ki [8] | Ki [9] | Ki [10] | IC50 [1] | IC50 [2] | Ki [11] | Ki [12] | Ki [13] | Ki [14] | Ki [15] | Ki [16] | Ki [17] | SMILES |
| --- | --- | --- | --- | --- | --- | --- | --- | --- | --- | --- | --- | --- | --- | --- | --- | --- | --- | --- | --- |
| 1.02 µM | 0.77 µM |  |  |  |  |  |  |  |  |  |  |  |  |  |  |  |  |  | O=C1C=CC2C(=C1)Oc1cc(O)ccc1C2c1cc(C(=O)NCCOCCOCCOCCn2cc(COc3ccc(N4CCN(C(=O)c5cc6c(s5)-c5ccccc5S(=O)(=O)C6)CC4)cc3)nn2)ccc1C(=O)O (stereo not drawn) |
|  |  | > 10 µM | 3.4 µM | 0.43 µM | 5.8 µM | > 10 µM | > 10 µM | > 10 µM | 6.2 µM |  |  |  |  |  |  |  |  |  | O=C(CN1CCN(C(=O)c2ccco2)CC1)Nc1cc(C(F)(F)F)ccc1Cl [ML348] |
| > 10 µM | > 10 µM |  |  |  |  |  |  |  |  | > 100 µM | > 100 µM |  |  |  |  |  |  |  | COc1ccc(N2CCN(C(=O)c3cc4c(s3)-c3ccccc3SC4)CC2)cc1 [ML349-thioether] |
| 0.24 µM | 0.16 µM | 0.66 µM | > 10 µM | > 10 µM | > 10 µM | 0.13 µM | 0.2 µM | 0.12 µM | > 10 µM | 1.1 µM | 1 µM | > 10 µM | > 10 µM | 0.37 µM | > 10 µM | 0.28 µM | 1.2 µM | 0.18 µM | COc1ccc(N2CCN(C(=O)c3cc4c(s3)-c3ccccc3S(=O)(=O)C4)CC2)cc1 [ML349] |
